One assay deals with T1, mTORC1 (Homo sapiens, UniProt P42345+P62942).
T1 construct: endogenous in cells; host or cells: PC3 cells (human prostate adenocarcinoma)
Briefly: Inhibition assay for mTORC1: phosphorylation of pS6K at Thr389, AlphaLISA in PC3 cells. To be noted: for IC50: read-out: pIC50 mTORC1 (converted). Format: cell-based. In general terms: In Alpha technology, singlet oxygen from a donor bead excites a nearby acceptor bead.

For another assay, the target named is T2, mTORC2 (Homo sapiens, UniProt P42345+P62942).
T2 construct: endogenous in cells; host or cells: PC3 cells (human prostate adenocarcinoma)
Briefly: Inhibition assay for mTORC2: phosphorylation of pAkt at Ser473, AlphaLISA in PC3 cells. The class given is cell-based. To be noted: for IC50: read-out: pIC50 mTORC2 (converted).

[1] abbreviates: PC3 cells, treated 24 hours, pS6K Thr389, AlphaLISA, C16 diastereomer mixtures not separated.
[2] abbreviates: PC3 cells, treated 24 hours, pAkt Ser473, AlphaLISA, C16 diastereomer mixtures not separated.

Structures are written as SMILES. Read-outs that look alike come from different tables or passages of the source.

T2 sequence (P62942 2-108 limits assumed, other chains not shown): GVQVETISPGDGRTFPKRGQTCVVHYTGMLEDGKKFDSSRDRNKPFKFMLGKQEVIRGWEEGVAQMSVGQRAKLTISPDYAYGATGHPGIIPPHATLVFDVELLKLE

Consider `COC1C[C@@H]2CC[C@@H](C)[C@@](O)(O2)C(=O)C(=O)N2CCCCC2C(=O)O[C@H]([C@H](C)C[C@@H]2CC[C@@H](OCCCOCCO)[C@H](OC)C2)CC(=O)[C@H](C)/C=C(\C)[C@@H](O)[C@@H](OC)C(=O)[C@H](C)C[C@H](C)/C=C/C=C/C=C/1C` (stereo partly shown) [Compound 352], for which, on mTORC1 (Rapamycin analogs substituted at C40, pS6K Thr389, PC3 cells, 24 hours treatment), the “pIC50 mTORC1” value is recorded as “A (pIC50 for mTORC1 of >9.5 as A)”. In addition, on mTORC2 (Rapamycin analogs substituted at C40, pAkt Ser473, PC3 cells, 24 hours treatment), the “pIC50 mTORC2” value was “C (greater than 6 as C)”.
With `COCCCOC1CC2CCC(C)C(O)(O2)C(=O)C(=O)N2CCCCC2C(=O)OC(C(C)CC2CCC(OCCCO)C(OC)C2)CC(=O)C(C)C=C(C)C(O)C(OC)C(=O)C(C)CC(C)C=CC=CC=C1C` (stereo not shown) [Compound 33], the “pIC50 mTORC1” value on mTORC1 (setting [1]) is recorded as “A (pIC50 for mTORC1 of >9.5 as A)”. For the same compound, at mTORC2 (setting [2]), the “pIC50 mTORC2” value is “B (5 to 6 as B)”.
With `CO[C@@H]1C[C@H](C[C@@H](C)[C@@H]2CC(=O)[C@H](C)/C=C(\C)[C@@H](O)[C@@H](OC)C(=O)[C@H](C)C[C@H](C)/C=C/C=C/C=C(\C)C(OC[C@@H](C)O)C[C@@H]3CC[C@@H](C)[C@@](O)(O3)C(=O)C(=O)N3CCCC[C@H]3C(=O)O2)CC[C@H]1OCCO` (mixture of isomers) [Compound 49], the IC50 was 0.316 to 3.16 nM at mTORC1 (setting [1]) and over 10000 nM on mTORC2 (setting [2]).
As for `COCCOC1CC2CCC(C)C(O)(O2)C(=O)C(=O)N2CCCCC2C(=O)OC(C(C)CC2CCC(OCCO)C(OC)C2)CC(=O)C(C)C=C(C)C(O)C(OC)C(=O)C(C)CC(C)C=CC=CC=C1C` (stereo not shown) [Compound 40], the “pIC50 mTORC1” value on mTORC1 (setting [1]) is listed as “A (pIC50 for mTORC1 of >9.5 as A)”. The “pIC50 mTORC2” value on mTORC2 (setting [2]) is “B (5 to 6 as B)”.
As to `COC1CC2CCC(C)C(O)(O2)C(=O)C(=O)N2CCCCC2C(=O)OC(C(C)CC2CCC(O[Si](C)(C)C(C)(C)C)C(OC)C2)CC(=O)C(C)C=C(C)C(O)C(OC)C(=O)C(C)CC(C)C=CC=CC=C1C` (stereo not shown) [Compound 302], the IC50 is over 3.16 nM on mTORC1 and 1000 to 10000 nM at mTORC2.
For `COCCCOC1C[C@@H]2CC[C@@H](C)[C@@](O)(O2)C(=O)C(=O)N2CCCCC2C(=O)O[C@H]([C@H](C)C[C@@H]2CC[C@@H](O)[C@H](OC)C2)CC(=O)[C@H](C)/C=C(\C)[C@@H](O)[C@@H](OC)C(=O)[C@H](C)C[C@H](C)/C=C/C=C/C=C/1C` (stereo partly shown) [Compound 225], the IC50 on mTORC1 was under 0.316 nM; on mTORC2 it was 1000 to 10000 nM.
For `COC1CC2CCC(C)C(O)(O2)C(=O)C(=O)N2CCCCC2C(=O)OC(C(C)CC2CCC(OC(=O)C3(C)COC(C)(C)OC3)C(OC)C2)CC(=O)C(C)C=C(C)C(O)C(OC)C(=O)C(C)CC(C)C=CC=CC=C1C` (stereo not shown) [Compound 309] the same measures were under 0.316 nM and under 1000 nM.
For `CO[C@@H]1C[C@H](C[C@@H](C)[C@@H]2CC(=O)[C@H](C)/C=C(\C)[C@@H](O)[C@@H](OC)C(=O)[C@H](C)C[C@H](C)/C=C/C=C/C=C(\C)C(OCCCc3ccccc3)C[C@@H]3CC[C@@H](C)[C@@](O)(O3)C(=O)C(=O)N3CCCCC3C(=O)O2)CC[C@H]1O` (stereo partly shown) [Compound 207] the same measures were 0.316 to 3.16 nM and 1000 to 10000 nM.
As for `COC1C[C@@H]2CC[C@@H](C)[C@@](O)(O2)C(=O)C(=O)N2CCCCC2C(=O)O[C@H]([C@H](C)C[C@@H]2CC[C@@H](OC(=O)NCCn3cnnn3)[C@H](OC)C2)CC(=O)[C@H](C)/C=C(\C)[C@@H](O)[C@@H](OC)C(=O)[C@H](C)C[C@H](C)/C=C/C=C/C=C/1C` (stereo partly shown) [Compound 312], the IC50 is under 0.316 nM on mTORC1 and under 1000 nM on mTORC2.
`CO[C@@H]1C[C@H](C[C@@H](C)[C@@H]2CC(=O)[C@H](C)/C=C(\C)[C@@H](O)[C@@H](OC)C(=O)[C@H](C)C[C@H](C)/C=C/C=C/C=C(\C)C(OC[C@H](O)c3ccccc3)C[C@@H]3CC[C@@H](C)[C@@](O)(O3)C(=O)C(=O)N3CCCCC3C(=O)O2)CC[C@H]1O` (stereo partly shown) [Compound 214]: the IC50 on mTORC1 was under 0.316 nM; on mTORC2 it was 1000 to 10000 nM.
For `COC1C[C@@H]2CC[C@@H](C)[C@@](O)(O2)C(=O)C(=O)N2CCCCC2C(=O)O[C@H]([C@H](C)C[C@@H]2CC[C@@H](OC(=O)NCCOCCOCCOCCOCCO)[C@H](OC)C2)CC(=O)[C@H](C)/C=C(\C)[C@@H](O)[C@@H](OC)C(=O)[C@H](C)C[C@H](C)/C=C/C=C/C=C/1C` (stereo partly shown) [Compound 347] the same measures were under 0.316 nM and under 1000 nM.
The like results for `COC1C[C@@H]2CC[C@@H](C)[C@@](O)(O2)C(=O)C(=O)N2CCCCC2C(=O)O[C@H]([C@H](C)C[C@@H]2CC[C@@H](OC(=O)NCCN3CCN(C)CC3)[C@H](OC)C2)CC(=O)[C@H](C)/C=C(\C)[C@@H](O)[C@@H](OC)C(=O)[C@H](C)C[C@H](C)/C=C/C=C/C=C/1C` (stereo partly shown) [Compound 367] were, in that order, under 0.316 nM and under 1000 nM.
As to `COC1C[C@@H]2CC[C@@H](C)[C@@](O)(O2)C(=O)C(=O)N2CCCCC2C(=O)O[C@H]([C@H](C)C[C@@H]2CC[C@@H](OCCO)[C@H](OC)C2)CC(=O)[C@H](C)/C=C(\C)[C@@H](O)[C@@H](OC)C(=O)[C@H](C)C[C@H](C)/C=C/C=C/C=C/1C` (stereo partly shown) [Compound 306], the IC50 is under 0.316 nM at mTORC1 and under 1000 nM on mTORC2.
With `CO[C@@H]1C[C@H](C[C@@H](C)[C@@H]2CC(=O)[C@H](C)/C=C(\C)[C@@H](O)[C@@H](OC)C(=O)[C@H](C)C[C@H](C)/C=C/C=C/C=C(\C)C(OCCO)C[C@@H]3CC[C@@H](C)[C@@](O)(O3)C(=O)C(=O)N3CCCC[C@H]3C(=O)O2)CC[C@H]1OCCCN1CC2(COC2)C1` (mixture of isomers) [Compound 78], the values for the IC50 on mTORC1 (setting [1]) and at mTORC2 (setting [2]) were 0.316 to 3.16 nM and over 10000 nM, respectively.

The record behind these values is patent US11702429B2, “mTORC modulators and uses thereof” (Aeovian Pharmaceuticals, Inc., priority 2019, dated 2023).
